The results in this text go back to US20240246964A1 (Arbutus Biopharma Corporation, priority 2021, published 2024).

The structures appear in SMILES notation.

By EC50 is commonly meant the midpoint of the concentration-response curve.

Chain of human PD-L1 (Q9NZQ7 19-290): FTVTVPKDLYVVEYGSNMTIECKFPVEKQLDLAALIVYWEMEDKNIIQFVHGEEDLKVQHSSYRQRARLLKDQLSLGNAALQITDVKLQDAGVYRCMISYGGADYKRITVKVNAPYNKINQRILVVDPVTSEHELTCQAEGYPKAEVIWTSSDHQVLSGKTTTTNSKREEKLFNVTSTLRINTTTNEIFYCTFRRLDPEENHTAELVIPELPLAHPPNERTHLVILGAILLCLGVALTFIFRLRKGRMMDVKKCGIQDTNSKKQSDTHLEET

The assay addresses human PD-L1 (Homo sapiens (Human), UniProt Q9NZQ7). Nature of the assay: T cell activation luciferase reporter cell culture system (T Cell Activation Assay). Format: cell-based. As to conditions: luciferase reporter assay; PD-L1 aAPC/CHO-K1 cells with PD-1 effector Jurkat T cells.
With `COc1cc(-c2nccc(-c3cccc(-c4ccc(CN5CC[C@H](C(=O)O)C5)c(OC)n4)c3Cl)c2Cl)ccc1CNC1CCN(C(C)=O)CC1` [Example 388, (S)-1-((6-(3-(2-(4-(((1-acetylpiperidin-4-yl)amino)methyl)-3-methoxyphenyl)-3-chloropyridin-4-yl)-2-chlorophenyl)-2-methoxypyridin-3-yl)methyl)pyrrolidine-3-carboxylic acid], a half-maximal response (EC50) required 38.5 nM. In other words, the double-digit nanomolar range.
For the molecule `COc1cc(-c2nccc(-c3cccc(-c4ccc(CNC5CCOCC5)c(OC)n4)c3Cl)c2Cl)cc(F)c1CNC1CCOCC1` [Example 348, N-((6-(2-Chloro-3-(3-chloro-2-(3-fluoro-5-methoxy-4-(((tetrahydro-2H-pyran-4-yl)amino)methyl)phenyl)pyridin-4-yl)phenyl)-2-methoxypyridin-3-yl)methyl)tetrahydro-2H-pyran-4-amine], the EC50 turned out to be 28.9 nM.
Under `COc1cc(-c2nccc(-c3cccc(-c4ccc(CNC[C@@H]5CCC(=O)N5)c(OC)n4)c3Cl)c2Cl)ccc1CNC1CCOCC1` [Cmpd 127, (S)-5-((((6-(2-chloro-3-(3-chloro-2-(3-methoxy-4-(((tetrahydro-2H-pyran-4-yl)amino)methyl)phenyl)pyridin-4-yl)phenyl)-2-methoxypyridin-3-yl)methyl)amino)methyl)pyrrolidin-2-one] stands 33.5 nM.
`COc1cc(-c2nccc(-c3cccc(-c4cc(Cl)c(CNC[C@@H]5CCC(=O)N5)c(OC)n4)c3Cl)c2Cl)ccc1CN(C)C[C@H](C)O` [Cmpd 71, (S)-5-((((4-chloro-6-(2-chloro-3-(3-chloro-2-(4-((((S)-2-hydroxypropyl)(methyl)amino)methyl)-3-methoxyphenyl)pyridin-4-yl)phenyl)-2-methoxypyridin-3-yl)methyl)amino)methyl)pyrrolidin-2-one] gave a concentration giving a half-maximal response (EC50) of 30.6 nM.
`CNCc1ccc(-c2nccc(-c3cccc4c3CCC[C@@H]4Nc3nc(OC)c(CNC)cc3C(F)(F)F)c2Cl)cc1OC` [Example 741, (S)—N-(5-(3-Chloro-2-(3-methoxy-4-((methylamino)methyl)phenyl)pyridin-4-yl)-1,2,3,4-tetrahydronaphthalen-1-yl)-6-methoxy-5-((methylamino)methyl)-3-(trifluoromethyl)pyridin-2-amine] came in with an EC50 not below 10000 nM.
`COc1nc(-c2cccc(-c3ccnc(-c4cc(OC)c5nc(CNCC6(O)CC6)nn5c4)c3Cl)c2Cl)ccc1CNC1CCN(C(C)=O)CC1` [Example 699, 1-(4-(((6-(2-chloro-3-(3-chloro-2-(2-((((1-hydroxycyclopropyl)methyl)amino)methyl)-8-methoxy-[1,2,4]triazolo[1,5-a]pyridin-6-yl)pyridin-4-yl)phenyl)-2-methoxypyridin-3-yl)methyl)amino)piperidin-1-yl)ethan-1-one] returned an EC50 of 51.5 nM.
`COc1nc(-c2cccc(-c3ccnc(-c4ccn5c(=O)c(CNC[C@@H]6CCC(=O)N6)cnc5c4)c3Cl)c2Cl)ccc1CNC[C@@H]1CCC(=O)N1` [Cmpd 2, 8-(3-chloro-4-(2-chloro-3-(6-methoxy-5-(((((S)-5-oxopyrrolidin-2-yl)methyl)amino)methyl)pyridin-2-yl)phenyl)pyridin-2-yl)-3-(((((S)-5-oxopyrrolidin-2-yl)methyl)amino)methyl)-4H-pyrido[1,2-a]pyrimidin-4-one] gave an EC50 of 87.6 nM.
With `COc1cc(-c2nccc(-c3cccc(-c4ccc(CN5CC6(CCN(C(C)=O)C6)C5)c(OC)n4)c3Cl)c2Cl)ccc1CN1CC2(CCN(C(C)=O)C2)C1` [Example 671, 1-(2-((6-(3-(2-(4-((6-Acetyl-2,6-diazaspiro[3.4]octan-2-yl)methyl)-3-methoxyphenyl)-3-chloropyridin-4-yl)-2-chlorophenyl)-2-methoxypyridin-3-yl)methyl)-2,6-diazaspiro[3.4]octan-6-yl)ethan-1-one], the EC50 came to 29.6 nM.
In the case of `COc1cc(-c2nccc(-c3cccc(-c4ccc(CNC5CCN(C(=O)C6CCC6)CC5)c(OC)n4)c3Cl)c2Cl)ccc1CNC1CCN(C(=O)C2CCC2)CC1` [Example 352, (4-(((6-(2-Chloro-3-(3-chloro-2-(4-(((1-(cyclobutanecarbonyl)piperidin-4-yl)amino)methyl)-3-methoxyphenyl)pyridin-4-yl)phenyl)-2-methoxypyridin-3-yl)methyl)amino)piperidin-1-yl)(cyclobutyl)methanone], the EC50 was 134 nM. This EC50 lies about 4.5-fold higher than the previous one.
Under `COc1cc(-c2nccc(-c3cccc(-c4ccc(CN5CC6(CNC(=O)C6)C5)c(OC)n4)c3C)c2Cl)ccc1CN1CC2(CNC(=O)C2)C1` [Example 408, 2-((6-(3-(3-chloro-2-(3-methoxy-4-((7-oxo-2,6-diazaspiro[3.4]octan-2-yl)methyl)phenyl)pyridin-4-yl)-2-methylphenyl)-2-methoxypyridin-3-yl)methyl)-2,6-diazaspiro[3.4]octan-7-one] stands 39.4 nM; under `CNCc1ccc(-c2nccc(-c3cccc(-c4ccc(CNC)c(OC)n4)c3C)c2Cl)cc1OC` [Example 395, 1-(6-(3-(3-Chloro-2-(3-methoxy-4-((methylamino)methyl)phenyl)pyridin-4-yl)-2-methylphenyl)-2-methoxypyridin-3-yl)-N-methylmethanamine], 81.8 nM.
`COc1cc(-c2nccc(-c3cccc(-c4ccc(CNC[C@@H]5CCC(=O)N5)c(OC)n4)c3Cl)c2Cl)ccc1CNCC(=O)O` [Cmpd 107, (S)-(4-(3-chloro-4-(2-chloro-3-(6-methoxy-5-((((5-oxopyrrolidin-2-yl)methyl)amino)methyl)pyridin-2-yl)phenyl)pyridin-2-yl)-2-methoxybenzyl)glycine]: the EC50 was found to be 253 nM.
Under `COc1cc(-c2nccc(-c3cccc(-c4ccc(CNC5CCN(C(C)=O)CC5)c(OC)n4)c3Cl)c2Cl)ccc1CN1CCC(O)CC1` [Example 459, 1-(4-(((6-(2-Chloro-3-(3-chloro-2-(4-((4-hydroxypiperidin-1-yl)methyl)-3-methoxyphenyl)pyridin-4-yl)phenyl)-2-methoxypyridin-3-yl)methyl)amino)piperidin-1-yl)ethan-1-one] stands 33 nM; under `COc1nc(-c2cccc(-c3ccnc(-c4cc(OC)c5nc(CN[C@H]6CC[C@H](O)CC6)nn5c4)c3Cl)c2Cl)ccc1CNC[C@@H]1CCC(=O)N1` [Example 260, (S)-5-((((6-(2-Chloro-3-(3-chloro-2-(2-((((1r,4r)-4-hydroxycyclohexyl)amino)methyl)-8-methoxy-[1,2,4]triazolo[1,5-a]pyridin-6-yl)pyridin-4-yl)phenyl)-2-methoxypyridin-3-yl)methyl)amino)methyl)pyrrolidin-2-one], 26.8 nM.
Under `COc1cc(-c2nccc(-c3cccc(-c4ccc(CN[C@@H]5CCN(C(C)=O)C5)c(OC)n4)c3Cl)c2Cl)ccc1CN[C@@H]1CCN(C(C)=O)C1` [Example 374, 1-((R)-3-(((6-(3-(2-(4-((((R)-1-Acetylpyrrolidin-3-yl)amino)methyl)-3-methoxyphenyl)-3-chloropyridin-4-yl)-2-chlorophenyl)-2-methoxypyridin-3-yl)methyl)amino)pyrrolidin-1-yl)ethan-1-one] stands 44.6 nM.
As to `COc1cc(-c2nccc(-c3cccc(-c4ccc(CN[C@H]5CC[C@@H](O)CC5)c(OC)n4)c3Cl)c2Cl)ccc1CN1CC2(CNC(=O)C2)C1` [Example 516, 2-(4-(3-Chloro-4-(2-chloro-3-(5-((((1s,4s)-4-hydroxycyclohexyl)amino)-methyl)-6-methoxypyridin-2-yl)phenyl)pyridin-2-yl)-2-methoxybenzyl)-2,6-diazaspiro[3.4]octan-7-one], a half-maximal effect (EC50) was put at 50.4 nM. This EC50 and that of the molecule before are within 1.5-fold of each other.
